{"source": "patent US20220213198A1", "about": "“METHOD OF TREATMENT” (The Council of the Queensland Institute of Medical Research, priority 2019, published 2022)", "key": {"[1]": {"test_system": "MAIT cells", "experiment": "In vitro co-culture of purified splenic MAIT or conventional T cells with ligand-treated B16F10 cells", "assay_type": "cell-based, mouse"}, "[2]": {"test_system": "B16F10 cells", "experiment": "B16F10 proliferative and migratory assays in vitro", "assay_type": "cell-based, mouse", "conditions": "co-culture of B16F10 with ligand"}}, "data": [{"molecule": "CC(=O)C=Nc1c(NC[C@H](O)[C@H](O)[C@H](O)CO)[nH]c(=O)[nH]c1=O", "note": "[5-OP-RU]", "values": [{"measurement": "cytokine production", "setting": "[1]; conventional T cells with treated vs DMSO-treated B16F10", "value": "no increase in cytokine production"}, {"measurement": "number of treated CTV-labeled B16F10 cells", "setting": "[1]; following co-culture with MAIT cells", "value": "decrease"}, {"measurement": "IFNγ, IL-17A and TNF production", "setting": "[1]; purified splenic MAIT cells with treated vs DMSO-treated B16F10", "value": "produced more"}, {"measurement": "B16F10 biology as measured by proliferative or migratory assays", "setting": "[2]", "value": "did not alter the biology of these cells"}]}]}
